Results reported in patent publication US20130296311A1, “INHIBITORS OF HCV NS5A” (PRESIDIO PHARMACEUTICALS, INC., priority 2010, published 2013).
Where two headings read alike, the source gives them in different places.

Tested on: HCV 1b_Huh-Luc/Neo-ET cell line persistently expressing a bicistronic genotype 1b replicon in Huh 7 cells
Assay: HCV replicon assay (luciferase readout, 72 h)
Format: cell-based, HCV genotype 1b
Settings: Hepatitis C virus
Procedure, shortened: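 EC50 values come from a four-parameter fit of luciferase signal as % of untreated control, repeated across several determinations. The signal is from the HCV 1b_Huh-Luc/Neo-ET replicon line, dosed in triplicate one day post-plating and incubated 72 h before Bright-Glo readout.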

SMILES	EC50 (Huh-7, read-out: Inhibition of HCV genotype 1b) [nM]	EC50 (Huh-7, 72 h, read-out: Inhibition of HCV genotype 1b) [nM]
COC(=O)N[C@H](C(=O)N1CCC[C@H]1c1nc2ccc(C#Cc3ccc4c(ccc5nc([C@@H]6CCCN6C(=O)[C@@H](NC(=O)OC)C(C)C)[nH]c54)c3)cc2[nH]1)C(C)C [Compound 1273]	< 1	
CC(C)[C@H](NC(=O)N1CC[C@@H](O)C1)C(=O)N1CCC[C@H]1c1ncc(-c2ccc(C#Cc3ccc(-c4cnc([C@@H]5CCCN5C(=O)[C@@H](NC(=O)N5CC[C@@H](O)C5)C(C)C)[nH]4)cc3)cc2)[nH]1 [Compound 968]		10 to 999
